This note sets out measurements from the OligoGym collection.

The data set concerns the target SOD1. The following applies: ASO.

“And” between values parts separate entries of the source, which are not always exact repeats. Equal entries are not always repeated. After the bases stand the sugars from the 5' end (letter, count) and the backbone: PS all phosphorothioate, else s phosphorothioate and o phosphodiester by linkage. Methylation of C is not given here. e = 2'-O-(2-methoxyethyl) (MOE); k = constrained ethyl (cEt); d = 2'-deoxy (DNA)

For the sequence “AGATTACAGTGTTTAAT (sugars e2 k2 d9 k2 e2, PS)”, the target mRNA inhibition was 28% (HepG2, 0.1875 µM); 41% (HepG2, 0.75 µM); 63% (HepG2, 3 µM); 63% (HepG2, 5 µM); 71% (HepG2, 12 µM).

For “AGGAGACTACGACGCAAACC (sugars e5 d10 e5, PS)”, the target mRNA inhibition (HepG2, 4 µM) came out at 35%.

For “AGGATAACAGATGAGTT (sugars e3 k2 d7 k2 e3, PS)”, for the setting “HepG2, 3 µM”, the target mRNA inhibition came to 45%.

In the case of “AGGATACATTTCTACAG (sugars e2 k2 d9 k2 e2, PS)”, the target mRNA inhibition is 9% (HepG2, 0.1875 µM); 52% (HepG2, 0.75 µM); 81% (HepG2, 3 µM); 77% (HepG2, 4 µM); 95% (HepG2, 12 µM).

Sequence “AGGTACTTTAAAGCAAC (sugars e2 k2 d8 k2 e3, PS)” showed a target mRNA inhibition (HepG2, 5 µM) of 35%.

With “AGGTACTTTAAAGCAAC (sugars e2 k2 d9 k2 e2, PS)”, the target mRNA inhibition (HepG2, 5 µM) was determined as 42%.

“AGTGATCATAAATCAGT (sugars e2 k2 d8 k2 e3, PS)” registered a target mRNA inhibition (HepG2, 5 µM) of 23%.

For the sequence “AGTGCCATACAGGGTTT (sugars e2 k2 d8 k2 e3, PS)”, where the note is “HepG2, 5 µM”, the target mRNA inhibition worked out at 20%.

Sequence “AGTGCCATACAGGGTTT (sugars e2 k2 d9 k2 e2, PS)” displayed a target mRNA inhibition (HepG2, 5 µM) of 27%.

“AGTGCCATACAGGGTTT (sugars e3 k2 d7 k2 e3, PS)” had a target mRNA inhibition (HepG2, 3 µM) of 9%.

As to “AGTGTTTAATGTTTATC (sugars e2 k2 d8 k2 e3, PS)”, the target mRNA inhibition (HepG2, 0.1875 µM) is 46%; the target mRNA inhibition (HepG2, 0.75 µM) was 74%; the target mRNA inhibition (HepG2, 3 µM) was found to be 84%; the target mRNA inhibition (HepG2, 5 µM) is 88%; the target mRNA inhibition (HepG2, 12 µM) was found to be 81%.

The sequence “AGTTTAATACCCATCTG (sugars e2 k2 d9 k2 e2, PS)” gave a target mRNA inhibition (HepG2, 5 µM) of 43%.

Consider “AGTTTCTCACTACAGGT (sugars e2 k2 d8 k2 e3, PS)”, for which the target mRNA inhibition (HepG2, 5 µM) is 33%.

In the case of “ATAACTCGCTAGGCCACGCC (sugars e5 d10 e5, PS)”, the target mRNA inhibition (HepG2, 4 µM) was determined as 12%.

On to “ATAAGTGCCATACAGGG (sugars e2 k2 d8 k2 e3, PS)”, for which the target mRNA inhibition (HepG2, 5 µM) was 36%.

Under “HepG2, 5 µM”, “ATAATAAGTGCCATACA (sugars e2 k2 d8 k2 e3, PS)” displayed a target mRNA inhibition of 27%.

Regarding “ATAATAAGTGCCATACAGGG (sugars e5 d10 e5, PS)”, the target mRNA inhibition (HepG2, 5 µM) was 18%.

“ATACAGGGTTTTTATTC (sugars e3 k2 d7 k2 e3, PS)” displayed a target mRNA inhibition (HepG2, 3 µM) of 3%.

Consider “ATACATTTCTACAGCTA (sugars e3 k2 d7 k2 e3, PS)”, for which the target mRNA inhibition by setting is: (HepG2, 0.1875 µM) 34%; (HepG2, 0.75 µM) 56%; (HepG2, 3 µM) 57% and 82%; (HepG2, 12 µM) 93%.

In turn, “ATCAGTTTCTCACTACA (sugars e2 k2 d8 k2 e3, PS)” came in with a target mRNA inhibition (HepG2, 5 µM) of 31%.

“ATCAGTTTCTCACTACAGGT (sugars e5 d10 e5, PS)”: the target mRNA inhibition (HepG2, 5 µM) came to 22%.

“ATCCATGCAGGCCTTCA (sugars e3 k2 d7 k2 e3, PS)” came in with a target mRNA inhibition (HepG2, 3 µM) of 27%.

Take “ATCTGTGATTTAAGTCT (sugars e2 k2 d9 k2 e2, PS)”: the target mRNA inhibition (HepG2, 5 µM) came out at 37%.

As for “ATGCAGGCCTTCAGTCA (sugars e3 k2 d7 k2 e3, PS)”, under “HepG2, 3 µM”, the target mRNA inhibition worked out at 37%.

In the case of “ATGGAATCCATGCAGGC (sugars e3 k2 d7 k2 e3, PS)”, where the note is “HepG2, 3 µM”, the target mRNA inhibition came to 9%.

As to “ATGTTTATCAGGATAC (sugars ekddddddddekekee, linkages s1 o1 s8 o3 s2)”, the target mRNA inhibition was found to be 0% (A431, 0.12 µM); 7% (A431, 0.6 µM); 26% (A431, 3 µM); 59% (A431, 15 µM); 64% (HepG2, 0.222 µM); 81% (HepG2, 0.667 µM). The target mRNA inhibition is, setting by setting: (HepG2, 2 µM) 90%; (HepG2, 6 µM) 94%.

“ATGTTTATCAGGATACA (sugars e2 k2 d9 k2 e2, PS)”: the target mRNA inhibition runs as follows: (HepG2, 0.1875 µM) 27%; (HepG2, 0.75 µM) 65%; (HepG2, 3 µM) 88%; (HepG2, 4 µM) 81%; (HepG2, 12 µM) 96%.

As to “ATGTTTATCAGGATACA (sugars e4 d8 e5, linkages s1 o2 s9 o2 s2)”, the target mRNA inhibition is, setting by setting: (A431, 0.062 µM) 0%; (A431, 0.185 µM) 4%; (A431, 0.556 µM) 10%; (A431, 1.667 µM) 33%; (A431, 5 µM) 56%; (A431, 15 µM) 50%. In addition, the target mRNA inhibition was 0% (SH-SY5Y, 0.062 µM); 4% (SH-SY5Y, 0.185 µM); 32% (SH-SY5Y, 0.556 µM); 37% (SH-SY5Y, 1.667 µM); 61% (SH-SY5Y, 5 µM); 83% (SH-SY5Y, 15 µM).

As to “ATGTTTATTGGGCGATC (sugars e2 k2 d8 k2 e3, PS)”, the target mRNA inhibition was 15% (HepG2, 0.1875 µM); 36% (HepG2, 0.75 µM); 79% (HepG2, 3 µM); 76% (HepG2, 4 µM); 95% (HepG2, 12 µM).

In turn, “ATTACTTTCCTTCTGCT (sugars e3 k2 d7 k2 e3, PS)” returned a target mRNA inhibition (HepG2, 3 µM) of 15%.

In the case of “ATTTAAGTCTGGCAAAATAC (sugars e5 d10 e5, PS)”, the target mRNA inhibition (HepG2, 5 µM) was 16%.

Consider “CAAAATACAGGTCATTG (sugars e2 k2 d8 k2 e3, PS)”, for which the target mRNA inhibition (HepG2, 5 µM) worked out at 44%.

“CAAAATACAGGTCATTG (sugars e2 k2 d9 k2 e2, PS)” showed a target mRNA inhibition (HepG2, 5 µM) of 56%.

Where the note is “HepG2, 5 µM”, “CAAAGAAATTCTGACAAGTT (sugars e5 d10 e5, PS)” registered a target mRNA inhibition of 7%.

Turning to “CAAGCCAAACGACTTCCAGC (sugars e5 d10 e5, PS)”, the target mRNA inhibition turned out to be 9% (HepG2, 0.1875 µM); 27% (HepG2, 0.75 µM); 59% (HepG2, 3 µM); 54% (HepG2, 5 µM); 89% (HepG2, 12 µM).

For the sequence “CAAGTTTAATACCCATC (sugars e3 k2 d7 k2 e3, PS)”, the target mRNA inhibition (HepG2, 3 µM) came out at 37%.

Under “HepG2, 4 µM”, “CAATTACACCACAAGCC (sugars e2 k2 d9 k2 e2, PS)” showed a target mRNA inhibition of 61%.

Take “CACCACAAGCCAAACGA (sugars e2 k2 d8 k2 e3, PS)”: the target mRNA inhibition (HepG2, 4 µM) was found to be 48%.

Turning to “CACCTTCACTGGTCCAT (sugars e3 k2 d7 k2 e3, PS)”, the target mRNA inhibition runs as follows: (HepG2, 0.1875 µM) 19%; (HepG2, 0.75 µM) 39%; (HepG2, 3 µM) 53% and 69%; (HepG2, 12 µM) 88%.

For “CACGCCGAGGTCCTGGTTCC (sugars e5 d10 e5, PS)”, the target mRNA inhibition (HepG2, 4 µM) was found to be 23%.

For “CAGAATCTTCAATAGACACA (sugars e5 d10 e5, PS)”, for the setting “HepG2, 5 µM”, the target mRNA inhibition is 17% and 0%.

“CAGGATAACAGATGAGT (sugars e2 k2 d8 k2 e3, PS)” came in with a target mRNA inhibition (HepG2, 0.1875 µM) of 62%; a target mRNA inhibition (HepG2, 0.75 µM) of 89%; a target mRNA inhibition (HepG2, 3 µM) of 95%; a target mRNA inhibition (HepG2, 4 µM) of 95%; a target mRNA inhibition (HepG2, 12 µM) of 95%.

For “CAGGATAACAGATGAGT (sugars e3 k2 d7 k2 e3, PS)”, the target mRNA inhibition is 45% (HepG2, 0.1875 µM); 72% (HepG2, 0.75 µM); 65% and 86% (HepG2, 3 µM); 92% (HepG2, 12 µM).

On to “CAGGCCTTCAGTCAGTCCTT (sugars e5 d10 e5, PS)”, for which the target mRNA inhibition (HepG2, 5 µM) is 56% and 51%.

Sequence “CAGGTCATTGAAACAGA (sugars e3 k2 d7 k2 e3, PS)” showed a target mRNA inhibition (HepG2, 3 µM) of 14%.

As for “CAGTGTTTAATGTTTA (sugars ekddddddddekekee, linkages s1 o1 s8 o3 s2)”, the target mRNA inhibition by setting is: (A431, 0.12 µM) 8%; (A431, 0.6 µM) 26%; (A431, 3 µM) 57%; (A431, 15 µM) 76%; (HepG2, 0.222 µM) 54%; (HepG2, 0.667 µM) 79%. This sequence also had a target mRNA inhibition (HepG2, 2 µM) of 84% and a target mRNA inhibition (HepG2, 6 µM) of 88%.

Where the note is “HepG2, 3 µM”, “CAGTGTTTAATGTTTAT (sugars e3 k2 d7 k2 e3, PS)” yielded a target mRNA inhibition of 54%.

“CAGTGTTTAATGTTTATC (sugars e5 d8 e5, linkages s1 o3 s9 o2 s2)” gave a target mRNA inhibition (A431, 0.12 µM) of 0%; a target mRNA inhibition (A431, 0.6 µM) of 8%; a target mRNA inhibition (A431, 3 µM) of 39%; a target mRNA inhibition (A431, 15 µM) of 52%; a target mRNA inhibition (HepG2, 0.222 µM) of 21%; a target mRNA inhibition (HepG2, 0.667 µM) of 47%. Moreover, the target mRNA inhibition was determined as 64% (HepG2, 2 µM) and 84% (HepG2, 6 µM).

For the sequence “CAGTTTCTCACTACAGG (sugars e2 k2 d9 k2 e2, PS)”, the target mRNA inhibition (HepG2, 5 µM) came to 38%.

Where the note is “HepG2, 3 µM”, “CATACAGGGTTTTTATT (sugars e3 k2 d7 k2 e3, PS)” registered a target mRNA inhibition of 0%.

For the sequence “CATCCTTTGGCCCACCG (sugars e3 k2 d7 k2 e3, PS)”, for the setting “HepG2, 3 µM”, the target mRNA inhibition turned out to be 38%.

For “CATGCCTCTCTTCATCC (sugars e3 k2 d7 k2 e3, PS)”, the target mRNA inhibition (HepG2, 3 µM) was determined as 14%.

For the sequence “CATTGCCCAAGTCTCCAACA (sugars e5 d10 e5, PS)”, where the note is “HepG2, 5 µM”, the target mRNA inhibition was 39% and 25%.

Take “CATTTCTACAGCTAGC (sugars ekddddddddekekee, linkages s1 o1 s8 o3 s2)”: the target mRNA inhibition runs as follows: (A431, 0.12 µM) 3%; (A431, 0.6 µM) 3%; (A431, 3 µM) 2%; (A431, 15 µM) 11%.

“CCAAGGGAATGTTTATT (sugars e2 k2 d8 k2 e3, PS)” gave a target mRNA inhibition (HepG2, 4 µM) of 57%.
